Assay results taken from patent US8791102B2, “Acetanilide sphingosine-1-phosphate receptor antagonists” (Exelixis, Inc., priority 2008, dated 2014).

Target: T1, human S1P1 receptors (Homo sapiens, UniProt P21453)
T1 construct: host or cells: HEK293
Test: S1P1R antagonist assay (fluorescent membrane potential dye, cAMP readout)
Format: cell-based
Conditions: HEK293 cells expressing human S1P1 receptors and CNG channel; 500 nM NECA; S1P1R agonist 10 nM; 90 minutes; read-out: EC50 or IC50 value

T1 sequence (P21453 whole entry): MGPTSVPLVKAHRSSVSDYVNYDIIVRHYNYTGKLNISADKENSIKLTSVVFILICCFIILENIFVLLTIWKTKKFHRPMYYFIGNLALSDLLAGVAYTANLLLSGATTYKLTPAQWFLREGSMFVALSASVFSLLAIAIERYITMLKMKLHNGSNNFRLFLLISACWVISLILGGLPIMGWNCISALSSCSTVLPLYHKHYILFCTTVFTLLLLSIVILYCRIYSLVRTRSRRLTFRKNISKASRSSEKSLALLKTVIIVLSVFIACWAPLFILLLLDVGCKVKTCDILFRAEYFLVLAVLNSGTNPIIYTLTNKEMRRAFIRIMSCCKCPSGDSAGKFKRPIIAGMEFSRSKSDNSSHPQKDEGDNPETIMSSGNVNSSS

First: COc1ccc(CCC(=O)N[C@@H](COCc2ccccc2)C(=O)Nc2ccc(Oc3ccc(F)cc3)cc2)cc1Cl [Compound 81, (S)-3-(benzyloxy)-2-(3-(3-chloro-4-methoxyphenyl)propanamido)-N-(4-(4-fluorophenoxy)phenyl)propanamide]
Second: COCCC(=O)N1C[C@H](Cc2ccccc2)C[C@H]1C(=O)Nc1ccc(Oc2ccc(F)cc2)cc1 [Compound 90, (2S,4R)-4-benzyl-N-(4-(4-fluorophenoxy)phenyl)-1-(3-methoxypropanoyl)pyrrolidine-2-carboxamide]
The IC50 of the first is higher: > 1000 nM for the first, ≤ 300 nM for the second. The second is the more potent here.

`O=C(Nc1ccc(Oc2ccc(F)cc2)cc1)[C@@H]1C[C@@H](Cc2ccccc2)CN1C(=O)CN1CCc2ccccc2C1` [Compound 82, (2S,4R)-4-benzyl-1-(2-(3,4-dihydroisoquinolin-2(1H)-yl)acetyl)-N-(4-(4-fluorophenoxy)phenyl)pyrrolidine-2-carboxamide] and `O=C(Nc1ccc(Oc2ccc(F)cc2)cc1)[C@@H]1C[C@@H](Cc2ccccc2)CN1C(=O)CN1CCSCC1` [Compound 83, (2S,4R)-4-benzyl-N-(4-(4-fluorophenoxy)phenyl)-1-(2-thiomorpholinoacetyl)pyrrolidine-2-carboxamide] cannot be ordered by IC50: ≤ 300 nM for the first, ≤ 300 nM for the second.

`O=C(Nc1ccc(Oc2ccc(F)cc2)cc1)[C@@H]1C[C@@H](Cc2ccccc2)CN1C(=O)Cc1c(F)ccc(F)c1F` [Compound 84, (2S,4R)-4-benzyl-N-(4-(4-fluorophenoxy)phenyl)-1-(2-(2,3,6-trifluorophenyl)acetyl)pyrrolidine-2-carboxamide] and `CSCCC(=O)N1C[C@H](Cc2ccccc2)C[C@H]1C(=O)Nc1ccc(Oc2ccc(F)cc2)cc1` [Compound 85, (2S,4R)-4-benzyl-N-(4-(4-fluorophenoxy)phenyl)-1-(3-(methylthio)propanoyl)pyrrolidine-2-carboxamide] cannot be ordered by IC50: ≤ 300 nM for the first, ≤ 300 nM for the second.

`CCOCCC(=O)N1C[C@H](Cc2ccccc2)C[C@H]1C(=O)Nc1ccc(Oc2ccc(F)cc2)cc1` [Compound 86, (2S,4R)-4-benzyl-1-(3-ethoxypropanoyl)-N-(4-(4-fluorophenoxy)phenyl)pyrrolidine-2-carboxamide] and `COCCOCC(=O)N1C[C@H](Cc2ccccc2)C[C@H]1C(=O)Nc1ccc(Oc2ccc(F)cc2)cc1` [Compound 88, (2S,4R)-4-benzyl-N-(4-(4-fluorophenoxy)phenyl)-1-(2-(2-methoxyethoxy)acetyl)pyrrolidine-2-carboxamide] cannot be ordered by IC50: ≤ 300 nM for the first, ≤ 300 nM for the second.

`CS(=O)(=O)CC(=O)N1C[C@H](Cc2ccccc2)C[C@H]1C(=O)Nc1ccc(Oc2ccc(F)cc2)cc1` [Compound 87, (2S,4R)-4-benzyl-N-(4-(4-fluorophenoxy)phenyl)-1-(2-(methylsulfonyl)acetyl)pyrrolidine-2-carboxamide] and `CN(C)C(=O)CCC(=O)N1C[C@H](Cc2ccccc2)C[C@H]1C(=O)Nc1ccc(Oc2ccc(F)cc2)cc1` [Compound 89, (2S,4R)-4-benzyl-1-(4-(dimethylamino)-4-oxobutanoyl)-N-(4-(4-fluorophenoxy)phenyl)pyrrolidine-2-carboxamide] cannot be ordered by IC50: ≤ 300 nM for the first, ≤ 300 nM for the second.

`O=C(CCC(=O)N1C[C@H](Cc2ccccc2)C[C@H]1C(=O)Nc1ccc(Oc2ccc(F)cc2)cc1)c1cccs1` [Compound 91, (2S,4R)-4-benzyl-N-(4-(4-fluorophenoxy)phenyl)-1-(4-oxo-4-(thien-2-yl)butanoyl)pyrrolidine-2-carboxamide] and `O=C(Nc1ccc(Oc2ccc(F)cc2)cc1)[C@@H]1C[C@@H](Cc2ccccc2)CN1C(=O)C1CCCO1` (stereo partly drawn) [Compound 92, (2S,4R)-4-benzyl-N-(4-(4-fluorophenoxy)phenyl)-1-(tetrahydrofuran-2-carbonyl)pyrrolidine-2-carboxamide] cannot be ordered by IC50: ≤ 300 nM for the first, ≤ 300 nM for the second.

For `CC(=O)N1CCC[C@H]1C(=O)N1C[C@H](Cc2ccccc2)C[C@H]1C(=O)Nc1ccc(Oc2ccc(F)cc2)cc1` [Compound 93, (2S,4R)-1-((S)-1-acetylpyrrolidine-2-carbonyl)-4-benzyl-N-(4-(4-fluorophenoxy)phenyl)pyrrolidine-2-carboxamide], the IC50 was ≤ 300 nM.
